Our source for the IC50 values is US5721234A, “Glutamate receptor antagonists: fused cycloalkylouinoxalinediones” (Warner-Lambert Company, priority 1995, dated 1998).

Assay [1] addresses kainate site (non-NMDA receptor). In words: Kainate site (non-NMDA receptor) binding affinity (London and Coyle).
The subject of assay [2] is AMPA-induced neuronal damage in primary cortical neuronal cultures. In words: AMPA-induced neuronal damage in primary cortical neuronal cultures, LDH release. Type of assay: cell-based. The following applies: long-term exposure to 100 μM AMPA. As for the experimental part: To functionally measure AMPA antagonist activity, the effects of the agent on AMPA-induced neuronal damage in primary cortical neuronal cultures was examined using techniques similar to those outlined by Koh, J.-Y. et al., J. Neurosci, 1990; 10:693. The neuronal damage produced by long-term exposure to 100 μM AMPA was measured by the release of the cytosolic enzyme lactate dehydrogenase (LDH).
Selected compounds of the present invention were tested by one or more of the above-described assays. The IC50 values set forth in Tables 1 and 2 are a measure of the concentration (μM) of the test substance which inhibits 50% of an induced release from the tested receptors.
For orientation: LDH in the medium is a marker of cell lysis.

The target in assay [3] is T1, glycine site of the NMDA receptor (Rattus norvegicus, UniProt P35439).
T1 construct: from tissue
In words: Glycine site of the NMDA receptor binding affinity (Jones et al.).

A further assay addresses AMPA receptors. Kind of assay: AMPA receptor binding affinity (Honore et al.).
[4] abbreviates: Table 1, cyclohexyl-fused analogs.
Setting [5] is: Table 2, cyclopentyl-fused analogs.

Each structure is given as a SMILES string. Structures can show the parent of a compound that is named as a salt.

Consider `NC1CCc2c([N+](=O)[O-])cc3[nH]c(=O)c(=O)[nH]c3c2C1` (centres unmarked) [Example 15, 9-amino-6-nitro-1,4,7,8,9,10-hexahydro-benzo[f]quinoxaline-2,3-dione], for which the half-inhibitory concentration (IC50) in assay [1] (setting [4]) came to 2.8 µM; in assay [2] (setting [4]), 20 µM; in assay [3] (setting [4]) it was 1.8 µM; on AMPA receptors (setting [4]), 0.7 µM.

`CC(=O)NC1CCc2c([N+](=O)[O-])cc3[nH]c(=O)c(=O)[nH]c3c2C1` (centres unmarked) [Example 17, N-(6-nitro-2,3-dioxo-1,2,3,4,7,8,9,10-octahydro-benzo[f]quinoxalin-9-yl)-acetamide]: the IC50 in assay [1] (setting [4]) was 2.2 µM; in assay [2] (setting [4]), more than 30 µM; in assay [3] (setting [4]) it was 0.62 µM; on AMPA receptors (setting [4]), 0.56 µM.

Take `O=C(NC1CCc2c([N+](=O)[O-])cc3[nH]c(=O)c(=O)[nH]c3c2C1)c1ccccc1` (centres unmarked) [Example 36, N-(6-nitro-2,3-dioxo-1,2,3,4,7,8,9,10-octahydrobenzo[f]quinoxalin-9-yl)-benzamide]: the IC50 in assay [1] (setting [4]) came to 0.9 µM; in assay [2] (setting [4]), 30 µM; in assay [3] (setting [4]), 0.09 µM; at AMPA receptors (setting [4]), 0.42 µM.

Regarding `O=C(NC1CCc2c([N+](=O)[O-])cc3[nH]c(=O)c(=O)[nH]c3c2C1)C1CCCCC1` (centres unmarked) [Example 37, N-(6-nitro-2,3-dioxo-1,2,3,4,7,8,9,10-octahydrobenzo[f]quinoxalin9-yl)cyclohexylamide], the IC50 in assay [2] (setting [4]) amounted to 28 µM; in assay [3] (setting [4]) it was 0.5 µM.

As for `O=C(NC1Cc2c([N+](=O)[O-])cc3[nH]c(=O)c(=O)[nH]c3c2C1)c1ccccc1` (centres unmarked) [Example 39, N-(6-nitro-2,3-dioxo-4,7,8,9-tetrahydro-1H-cyclopenta[f]quinoxalin-8-yl)-benzamide], the IC50 amounted to 0.48 µM in assay [1] (setting [5]), 18 µM in assay [2] (setting [5]), 0.4 µM in assay [3] (setting [5]) and 0.11 µM at AMPA receptors (setting [5]).

Turning to `O=C(NC1CCc2c([N+](=O)[O-])cc3[nH]c(=O)c(=O)[nH]c3c2C1)C1CCNCC1` (centres unmarked) [Example 40, 4-(6-nitro-2,3-dioxo-1,2,3,4,7,8,9,10-octahydrobenzo[f]quinoxaline-9-ylcarbamoyl)-piperidine hydrochloride], the 50% inhibitory concentration (IC50) was 0.82 µM in assay [1] (setting [4]), 25 µM in assay [2] (setting [4]), 0.28 µM in assay [3] (setting [4]) and 0.27 µM at AMPA receptors (setting [4]).

Turning to `O=C(NC1Cc2c([N+](=O)[O-])cc3[nH]c(=O)c(=O)[nH]c3c2C1)c1ccoc1` (centres unmarked) [Example 59, Furan-3-carboxylic acid (6-nitro-2,3-dioxo-2,3,4,7,8,9-hexahydro-1H-cyclopenta[f]quinoxalin-8-yl)-amide], the IC50 was 0.38 µM in assay [1] (setting [5]), 14 µM in assay [2] (setting [5]), more than 1 µM in assay [3] (setting [5]) and 0.14 µM on AMPA receptors (setting [5]).

Take `O=C(NC1Cc2c([N+](=O)[O-])cc3[nH]c(=O)c(=O)[nH]c3c2C1)c1ccsc1` (centres unmarked) [Example 60, Thiophene-3-carboxylic acid (6-nitro-2,3-dioxo-2,3,4,7,8,9-hexahydro-1H-cyclopenta[f]quinoxalin-8-yl)amide]: the 50% inhibitory concentration (IC50) in assay [1] (setting [5]) was determined as 0.36 µM; in assay [2] (setting [5]), 14 µM; in assay [3] (setting [5]), 0.4 µM; on AMPA receptors (setting [5]), 0.1 µM.

On to `O=C(NC1Cc2c([N+](=O)[O-])cc3[nH]c(=O)c(=O)[nH]c3c2C1)c1cccnc1` (centres unmarked) [Example 61, N-(6-Nitro-2,3-dioxo-2,3,4,7,8,9-hexahydro-1H-cyclopenta[f]quinoxalin-8-yl)-nicotinamide], for which the concentration for half-maximal inhibition (IC50) in assay [1] (setting [5]) is 1.03 µM; in assay [2] (setting [5]), 28 µM; in assay [3] (setting [5]) it was more than 1 µM; at AMPA receptors (setting [5]), 0.2 µM.

For the compound `O=C(NC1Cc2c([N+](=O)[O-])cc3[nH]c(=O)c(=O)[nH]c3c2C1)C1(O)OC(O)C(O)C1O` (centres unmarked) [Example 63, 2,3,4,5-Tetrahydroxy-tetrahydro-furan-2-carboxylic acid (6-nitro-2,3-dioxo-2,3,4,7,8,9-hexahydro-1H-cyclopenta[f]quinoxalin-8-yl)-amide], the IC50 is 1.1 µM in assay [1] (setting [5]), more than 30 µM in assay [2] (setting [5]), more than 1 µM in assay [3] (setting [5]) and 0.58 µM at AMPA receptors (setting [5]).

Usually IC50 stands for the concentration needed to halve the response being measured. Higher therefore signals weaker potency in that assay.
